Laboratory results taken from US10301292B2, “Bicyclic compound” (Takeda Pharmaceutical Company Limited, priority 2014, dated 2019).

Tests used:
HCT116 cells = test: Growth inhibitory activity on HCT116 cell (CellTiter-Glo); assay type: cell-based; conditions: Homo sapiens, HCT-116, 72 h, table head: 10 μM (text b2498: 1 μM), 3 days incubation, read-out: HCT116 cell proliferation inhibitory rate (%) at 10 μM
Method in brief: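 HCT116 cells in RPMI with 2% FBS, 900 cells/well, treated the day after seeding and incubated 3 days at 37 °C, 5% CO2. Viability read by CellTiter-Glo luminescence. Percent inhibition calculated relative to untreated wells, with cell-free wells subtracted as background.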

[1] = tested on: human renal cancer cell line 786-O; test: Antitumor action on human renal cancer cell line 786-O tumor bearing mouse; assay type: in vivo; conditions: oral, 28 days, 786-O tumor bearing BALB/c nude mouse
Procedure: The antitumor action of the compound of the present invention on human renal cancer cell line 786-O tumor bearing mouse was evaluated by the following method.
Human renal cancer cell line 786-O (purchased from ATCC (American Type Culture Collection)) was transplanted to 6-week-old BALB/c female nude mouse (Shanghai SINO-British SIPPR/BK Lab Animal Ltd) at 3.0×10^6 cells by subcutaneous injection. After transplantation, the engrafted tumor was observed, the tumor diameter was measured on day 10 post-transplantation, and the tumor volume was calculated by the following formula. tumor volume=major axis×minor axis×minor axis×(1/2)
The mice having engrafted tumor with a volume size up to 150 mm^3 were selected and used for the experiment (8 per group). The test compound was suspended in 0.5% methylcellulose solution, and orally administered for 28 days at the dose and number of administration shown in the following Table. Finally, for the measurement of the drug effect, the tumor volume was calculated from the tumor diameter of the day before the start of the administration and the final day of the administration, and the tumor growth of the test compound administration group compared to that of the control administration group (T/C) was calculated by the following formula. T/C (%)=(tumor volume after completion of administration in test compound administration group−tumor volume before start of administration in test compound administration group)/(tumor volume after completion of administration in control administration group−tumor volume before start of administration in control administration group))×100
T/C (%) relative to human renal cancer cell line 786-O tumor bearing mouse at each dose and number of administration of the test compound (specifically, compound shown in Example 98) is shown below.

[2] = tested on: collagen I gene expression in the liver; test: Effect on liver fibrosis caused by non-alcoholic steatohepatitis (liver collagen I gene expression); assay type: in vivo; conditions: LDL receptor deficient mouse, choline-deficient amino acid diet; oral once per day for 3 weeks; normalized by GAPDH; P<0.05 vs. control (FIG. 1)
Excerpt: The effect of the present compound on liver fibrosis caused by non-alcoholic steatohepatitis was verified by the following method.
For efficacy evaluation of the antifibrotic action, 9-week-old, male, homo low-density lipoprotein receptor deficient mouse was used. The low-density lipoprotein receptor deficient mouse was purchased from Jackson Laboratories (Bar Harbor, Me., USA) and bred in Takeda Pharmaceutical Industry. To induce non-alcoholic steatohepatitis, a choline-deficient amino acid diet (A08111307, Research Diets, New Brunswick, N.J., USA) was fed.
Before administration of the test compound (specifically, compound shown in Example 98), a choline-deficient amino acid diet was fed for one week, and the drug administration was started. […]
After administration for 3 weeks, the mouse was sacrificed by euthanasia under isoflurane anesthesia under non-fasting and the liver was removed. […] Using RNeasy Mini Kit (Qiagen, Valencia, Calif., USA), the total RNA was purified, cDNA was prepared using High Capacity cDNA Reverse Transcription Kit (PN4368814, Applied Biosystems, Foster City, Calif., USA), and collagen I expression was quantified (collagen type I alpha 1, Part Number 4351370, Applied Biosystems) by the quantitative PCR method (TaqMan Gene Expression Master Mix, PN4369016, Applied Biosystems). […]

With CC(NC(N)=O)c1ccc2nc(-c3ccc(Oc4cccc(OCC5CC5)c4)nc3)oc2c1 (centres unmarked) [Example 98, 1-(1-(2-(6-(3-(cyclopropylmethoxy)phenoxy)pyridin-3-yl)-1,3-benzoxazol-6-yl)ethyl)urea] as the molecule, how does the inhibition at 10 µM (HCT116 cells) read?
Its inhibition at 10 µM is 25%.

What about the “T/C (%)” value ([1]; 0.3 mg/kg, 2 times per day) of the same molecule?
The value was 50.6%.

What about the “T/C (%)” value ([1]; 1 mg/kg, 2 times per day) of the same molecule?
The value was 37.0%.

And the “T/C (%)” value ([1]; 3 mg/kg, 2 times per day)?
The value was 31.1%.

And the “T/C (%)” value ([1]; 10 mg/kg, 2 times per day)?
The value was 4.5%.

What about the “T/C (%)” value ([1]; 20 mg/kg, 1 time per day) of the same molecule?
Its value is 19.0%.

And the “T/C (%)” value ([1]; 30 mg/kg, 2 times per day)?
The value was 0.5%.

What about the “expression level of collagen I gene in the liver of a non-alcoholic steatohepatitis model” value [2] of the same molecule?
Its value is “significantly suppressed”.
